Measurements from patent US10975069B2, “Sigma-2 receptor ligand drug conjugates as antitumor compounds, methods of synthesis and uses thereof” (priority 2014, dated 2021).

How the values were obtained:
[1] = molecular target: T1, sigma-2 receptors (Homo sapiens, UniProt Q5BJF2); assay: Competitive inhibition of internalization of fluorescent sigma-2 ligand SW 120 (flow cytometry); assay type: cell-based; settings: increasing concentrations of SW V-49s (0, 10, 30, 50), 30 min 37 °C, then SW120; FIG. 3
T1 construct: endogenous in cells
Description: In these experiments, competitive binding assays of SW V-49s with the fluorescently labeled sigma-2 ligand SW 120 of structure
AsPC-1 cells (5×10^5/well) were seeded into a 6 well plate for 24 hours before treatment. The cells were then incubated with […] of SW V-49s for 30 minutes at 37° C. Subsequently, 10 nM of fluorescently labeled sigma-2 ligand SW120 was added to the cell culture medium containing SW V-49s. After 30 minute of incubation at 37° C., cells were washed twice with phosphate buffered saline (PBS) and harvested with 0.05% trypsin EDTA (Life Technologies. Grand Island, N.Y.). Thereafter, the cells were centrifuged at 1000×g for 5 minutes and the pellets were washed twice with PBS. Internalization of SW 120 was determined by flow cytometer (FACSCalibur™, BD Biosciences, San Jose, Calif.).

[2] = test system: SYO-1 Synovial sarcoma (SS) xenografts; assay: SYO-1 synovial sarcoma xenograft; assay type: in vivo, athymic nude mice; settings: 300 nmoles for 14 days; FIG. 14E
Description: SYO-1 Synovial sarcoma (SS) xenografts were also treated with 300 nmoles SW V-49. […] FIG. 14E depicts athymic nude mice xenograft of SS cell line SYO-1 treated with SW V-49 (300 nmoles) for 14 days and then followed, p<0.0001. SYO xenografts required a smaller dose of SW V-49 to achieve results similar to those achieved against PDAC.

T1 sequence (Q5BJF2 whole entry): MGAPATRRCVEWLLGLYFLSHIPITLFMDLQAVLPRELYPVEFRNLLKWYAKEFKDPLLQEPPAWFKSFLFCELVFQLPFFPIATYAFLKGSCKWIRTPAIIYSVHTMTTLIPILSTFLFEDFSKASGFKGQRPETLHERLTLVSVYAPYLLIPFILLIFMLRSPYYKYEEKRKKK

CCOc1ccccc1-n1c(CN2CCN(C(=O)COc3ccc(CNCCCCCCN4C5CCCC4CC(OC(=O)Nc4cc(C)ccc4OC)C5)cc3)CC2)nc2ccccc2c1=O.O=C(O)C(=O)O (centres unmarked) [SW V-49s]
blocking of SW 120 internalization [1]: efficient blocking of SW 120 internalization | tumor growth [2]: Growth inhibition
